Source: ChEMBL document CHEMBL1126306, “Inactivation of calpain by peptidyl fluoromethyl ketones” (J Med Chem, 1992)
Where a SMILES comes first, the peptide text is derived from it.

Test: The rate of inactivation expressed as second-order rate constant is independent of concentration.
Conditions: for kinact/KI: read-out: k2

SMILES | kinact/KI [M⁻¹ s⁻¹] | k2 [M⁻¹ s⁻¹]
C[C@H](NC(=O)[C@H](Cc1ccc(O)cc1)NC(=O)OCc1ccccc1)C(=O)CF | 7.4e+06 | –
CC(C)C[C@H](NC(=O)OCc1ccccc1)C(=O)N[C@@H](Cc1ccc(O)cc1)C(=O)CF (HELM PEPTIDE1{[O=C(OCc1ccccc1)[*:2]].L.Y.[FC[*:1]]}$$$$V2.0) | 17000 | 12000
